What was measured:
Experiment in all cases: relative viability (nuclei count vs DMSO), 5 days (fraction); higher = more cells survive
BEN = system: BEN
Procedure, shortened: (§1)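 Five library-drug doses in √10 steps were combined with a fixed anchor-drug dose, or a single drug was given alone, by pin tool to lung cancer cell lines in 1536-well plates the day after seeding. Nuclei were stained and counted after 5 days. Relative viability is the nuclei count in treated wells over that in vehicle wells, taken as the median of duplicate plates.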

CAL-12T = system: CAL-12T
Procedure, shortened: as §1

COR-L 105 = system: COR-L 105
Procedure, shortened: as §1

COR-L23 = system: COR-L23
Procedure, shortened: as §1

HARA = system: HARA
Procedure, shortened: as §1

HCC-15 = system: HCC-15
Procedure, shortened: as §1

HCC-366 = system: HCC-366
Procedure, shortened: as §1

HCC-827 = system: HCC-827
Procedure, shortened: as §1

HOP-62 = system: HOP-62
Procedure, shortened: as §1

LC-2-ad = system: LC-2-ad
Procedure, shortened: as §1

LCLC-97TM1 = system: LCLC-97TM1
Procedure, shortened: as §1

LU99A = system: LU99A
Procedure, shortened: as §1

LXF-289 = system: LXF-289
Procedure, shortened: as §1

NCI-H1993 = system: NCI-H1993
Procedure, shortened: as §1

NCI-H2009 = system: NCI-H2009
Procedure, shortened: as §1

NCI-H2087 = system: NCI-H2087
Procedure, shortened: as §1

NCI-H2126 = system: NCI-H2126
Procedure, shortened: as §1

NCI-H2170 = system: NCI-H2170
Procedure, shortened: as §1

NCI-H727 = system: NCI-H727
Procedure, shortened: as §1

PC-14 = system: PC-14
Procedure, shortened: as §1

PC-3 [JPC-3] = system: PC-3 [JPC-3]
Procedure, shortened: as §1

SK-MES-1 = system: SK-MES-1
Procedure, shortened: as §1

`Cc1cnc(-c2cnc(NCCNc3ccc(C#N)cn3)nc2-c2ccc(Cl)cc2Cl)[nH]1` + Cc1nc(Nc2ncc(C(=O)Nc3c(C)cccc3Cl)s2)cc(N2CCN(CCO)CC2)n1 [Dasatinib] (partner 0.075 µM) was tested, and the relative viability (BEN; first compound 0.08 µM) was 0.332, the relative viability (BEN; first compound 0.253 µM) was 0.364 and the relative viability (BEN; first compound 0.8 µM) was 0.291. The relative viability (BEN; first compound 2.53 µM) was 0.351, the relative viability (CAL-12T; first compound 0.08 µM) was 0.523 and the relative viability (CAL-12T; first compound 0.253 µM) was 0.358. It also gave a relative viability (CAL-12T; first compound 0.8 µM) of 0.23, a relative viability (CAL-12T; first compound 2.53 µM) of 0.198 and a relative viability (COR-L 105; first compound 0.08 µM) of 0.354. It also gave a relative viability (COR-L 105; first compound 0.253 µM) of 0.344, a relative viability (COR-L 105; first compound 0.8 µM) of 0.282 and a relative viability (COR-L 105; first compound 2.53 µM) of 0.208. It also gave a relative viability (COR-L23; first compound 0.253 µM) of 0.419, a relative viability (COR-L23; first compound 0.8 µM) of 0.51 and a relative viability (COR-L23; first compound 2.53 µM) of 0.5. For the same compound, the relative viability (HARA; first compound 0.08 µM) was 0.223, the relative viability (HARA; first compound 0.253 µM) was 0.259 and the relative viability (HARA; first compound 0.8 µM) was 0.343. The relative viability (HARA; first compound 2.53 µM) was 0.244, the relative viability (HCC-15; first compound 0.08 µM) was 0.687 and the relative viability (HCC-15; first compound 0.253 µM) was 0.509. The relative viability (HCC-15; first compound 0.8 µM) was 0.598, the relative viability (HCC-15; first compound 2.53 µM) was 0.625 and the relative viability (HCC-366; first compound 0.08 µM) was 0.67. The relative viability (HCC-366; first compound 0.253 µM) was 0.545, the relative viability (HCC-366; first compound 0.8 µM) was 0.618 and the relative viability (HCC-366; first compound 2.53 µM) was 0.595. For the same compound, the relative viability (HCC-827; first compound 0.08 µM) was 0.371, the relative viability (HCC-827; first compound 0.8 µM) was 0.291 and the relative viability (HCC-827; first compound 2.53 µM) was 0.318. For the same compound, the relative viability (HOP-62; first compound 0.08 µM) was 0.67, the relative viability (HOP-62; first compound 0.253 µM) was 0.668 and the relative viability (HOP-62; first compound 0.8 µM) was 0.709. It also gave a relative viability (HOP-62; first compound 2.53 µM) of 0.749, a relative viability (LC-2-ad; first compound 0.08 µM) of 0.662 and a relative viability (LC-2-ad; first compound 0.253 µM) of 0.486. The relative viability (LC-2-ad; first compound 2.53 µM) was 0.471, the relative viability (LCLC-97TM1; first compound 0.08 µM) was 0.796 and the relative viability (LCLC-97TM1; first compound 0.8 µM) was 0.887. It also gave a relative viability (LCLC-97TM1; first compound 2.53 µM) of 0.741, a relative viability (LU99A; first compound 0.08 µM) of 0.507 and a relative viability (LU99A; first compound 0.253 µM) of 0.487. It also gave a relative viability (LU99A; first compound 0.8 µM) of 0.528, a relative viability (LU99A; first compound 2.53 µM) of 0.643 and a relative viability (LXF-289; first compound 0.08 µM) of 0.249. The relative viability (LXF-289; first compound 0.253 µM) was 0.204, the relative viability (LXF-289; first compound 0.8 µM) was 0.189 and the relative viability (LXF-289; first compound 2.53 µM) was 0.139. For the same compound, the relative viability (NCI-H1993; first compound 0.08 µM) was 0.58, the relative viability (NCI-H1993; first compound 0.253 µM) was 0.568 and the relative viability (NCI-H1993; first compound 0.8 µM) was 0.499. For the same compound, the relative viability (NCI-H1993; first compound 2.53 µM) was 0.996, the relative viability (NCI-H2009; first compound 0.08 µM) was 0.322 and the relative viability (NCI-H2009; first compound 0.253 µM) was 0.284. It also gave a relative viability (NCI-H2009; first compound 0.8 µM) of 0.282, a relative viability (NCI-H2009; first compound 2.53 µM) of 0.231 and a relative viability (NCI-H2087; first compound 0.08 µM) of 0.837. It also gave a relative viability (NCI-H2087; first compound 0.253 µM) of 0.698, a relative viability (NCI-H2087; first compound 0.8 µM) of 0.919 and a relative viability (NCI-H2087; first compound 2.53 µM) of 0.614. For the same compound, the relative viability (NCI-H2126; first compound 0.08 µM) was 0.686, the relative viability (NCI-H2126; first compound 0.253 µM) was 0.54 and the relative viability (NCI-H2126; first compound 0.8 µM) was 0.604. It also gave a relative viability (NCI-H2126; first compound 2.53 µM) of 0.529, a relative viability (NCI-H2170; first compound 0.08 µM) of 0.556 and a relative viability (NCI-H2170; first compound 0.253 µM) of 0.345. The relative viability (NCI-H2170; first compound 0.8 µM) was 0.576, the relative viability (NCI-H2170; first compound 2.53 µM) was 0.487 and the relative viability (NCI-H727; first compound 0.08 µM) was 0.452. The relative viability (NCI-H727; first compound 0.253 µM) was 0.358, the relative viability (NCI-H727; first compound 0.8 µM) was 0.339 and the relative viability (NCI-H727; first compound 2.53 µM) was 0.54. The relative viability (PC-14; first compound 0.08 µM) was 0.325, the relative viability (PC-14; first compound 0.253 µM) was 0.226 and the relative viability (PC-14; first compound 2.53 µM) was 0.172. The relative viability (PC-3 [JPC-3]; first compound 0.08 µM) was 0.926, the relative viability (PC-3 [JPC-3]; first compound 0.253 µM) was 0.88 and the relative viability (PC-3 [JPC-3]; first compound 0.8 µM) was 0.929. For the same compound, the relative viability (PC-3 [JPC-3]; first compound 2.53 µM) was 1, the relative viability (SK-MES-1; first compound 0.08 µM) was 0.332 and the relative viability (SK-MES-1; first compound 0.253 µM) was 0.425. It also gave a relative viability (SK-MES-1; first compound 0.8 µM) of 0.401 and a relative viability (SK-MES-1; first compound 2.53 µM) of 0.247.

Source: the supplement of paper PMC10307832
